Measurements taken from patent US8952163B2, “Substituted hydroxamic acids and uses thereof” (Millennium Pharmaceuticals, Inc., priority 2010, dated 2015).

Molecular target: T1, purified human HDAC6 (Homo sapiens, UniProt Q9UBN7)
T1 construct: purchased BPS Bioscience 5006
T1 sequence (Q9UBN7 1-1215): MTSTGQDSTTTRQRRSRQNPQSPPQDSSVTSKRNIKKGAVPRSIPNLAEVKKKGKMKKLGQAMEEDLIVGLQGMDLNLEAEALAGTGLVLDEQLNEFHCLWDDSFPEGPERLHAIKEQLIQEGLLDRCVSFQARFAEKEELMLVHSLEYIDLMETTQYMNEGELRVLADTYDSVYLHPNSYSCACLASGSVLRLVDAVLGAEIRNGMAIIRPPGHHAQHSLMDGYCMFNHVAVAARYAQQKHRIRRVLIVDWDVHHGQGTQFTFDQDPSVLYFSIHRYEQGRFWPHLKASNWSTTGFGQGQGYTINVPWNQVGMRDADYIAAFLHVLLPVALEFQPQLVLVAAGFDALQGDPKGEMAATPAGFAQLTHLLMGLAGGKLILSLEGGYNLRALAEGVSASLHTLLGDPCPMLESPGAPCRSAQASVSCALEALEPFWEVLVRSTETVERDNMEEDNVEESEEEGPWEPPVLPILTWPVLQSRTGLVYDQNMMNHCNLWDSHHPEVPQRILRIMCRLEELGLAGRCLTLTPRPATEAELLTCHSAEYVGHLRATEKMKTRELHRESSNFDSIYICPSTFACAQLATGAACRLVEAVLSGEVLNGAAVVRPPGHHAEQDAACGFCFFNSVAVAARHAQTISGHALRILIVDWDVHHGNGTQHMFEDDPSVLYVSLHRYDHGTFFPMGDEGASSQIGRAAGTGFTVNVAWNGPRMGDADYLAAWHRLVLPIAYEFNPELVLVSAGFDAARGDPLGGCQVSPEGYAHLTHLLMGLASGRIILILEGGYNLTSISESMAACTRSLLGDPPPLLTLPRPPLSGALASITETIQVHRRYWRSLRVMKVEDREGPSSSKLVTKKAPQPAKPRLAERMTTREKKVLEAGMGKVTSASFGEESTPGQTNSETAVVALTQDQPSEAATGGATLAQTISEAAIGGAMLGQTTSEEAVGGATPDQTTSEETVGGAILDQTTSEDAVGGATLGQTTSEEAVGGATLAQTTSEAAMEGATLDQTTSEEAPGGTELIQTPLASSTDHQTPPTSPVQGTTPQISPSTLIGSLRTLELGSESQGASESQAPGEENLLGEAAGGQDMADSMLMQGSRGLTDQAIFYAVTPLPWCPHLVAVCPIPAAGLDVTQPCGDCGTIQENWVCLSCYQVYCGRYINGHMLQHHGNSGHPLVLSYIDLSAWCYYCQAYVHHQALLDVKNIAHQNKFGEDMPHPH
Assay: HDAC6 Enzyme Assay
Format: biochemical
Conditions: test compound at 1.235 μM; substrate Ac-Arg-Gly-Lys(Ac)-AMC, 1 hour at 30° C.; read-out: Percent Inhibition at 1.235 μM
Description: To measure the inhibition of HDAC6 activity, purified human HDAC6 (BPS Bioscience; Cat. No. 5006) is incubated with substrate Ac-Arg-Gly-Lys(Ac)-AMC peptide (Bachem Biosciences; Cat. No. I-1925) for 1 hour at 30° C. in the presence of test compounds or vehicle DMSO control. The reaction is stopped with the HDAC inhibitor trichostatin A (Sigma; Cat. No. T8552) and the amount of Arg-Gly-Lys-AMC generated is quantitated by digestion with trypsin (Sigma; Cat. No. T1426) and subsequent measurement of the amount of AMC released using a fluorescent plate reader (Pherastar, BMG Technologies) set at Ex 340 nm and Em 460 nm. Concentration response curves are generated by calculating the fluorescence increase in test compound-treated samples relative to DMSO-treated controls, and percentage inhibition values at a single concentration or enzyme inhibition (IC50) values are determined from those curves. One skilled in the art will appreciate that the values generated either as percentage inhibition at a single concentration or IC50 values are subject to experimental variation.

Row | SMILES | inhibition at 1.235 µM
1 | O=C(NO)c1ccc2c(n1)CCN(S(=O)(=O)c1ccc(C(F)(F)F)cc1)C2 [Compound I-59, N-hydroxy-6-{[4-(trifluoromethyl)phenyl]sulfonyl}-5,6,7,8-tetrahydro-1,6-naphthyridine-2-carboxamide] | 67.4%
2 | CCCCOc1ccc(S(=O)(=O)N2CCc3nc(C(=O)NO)ccc3C2)cc1 [Compound I-60, 6-[(4-butoxyphenyl)sulfonyl]-N-hydroxy-5,6,7,8-tetrahydro-1,6-naphthyridine-2-carboxamide] | 75.8%
3 | CCCCS(=O)(=O)N1CCc2nc(C(=O)NO)ccc2C1 [Compound I-61, 6-(butylsulfonyl)-N-hydroxy-5,6,7,8-tetrahydro-1,6-naphthyridine-2-carboxamide] | -3.95%
4 | O=C(NO)c1cnc2c(c1)CN(S(=O)(=O)c1ccc(C(F)(F)F)cc1)CC2 [Compound I-62, N-hydroxy-6-{[4-(trifluoromethyl)phenyl]sulfonyl}-5,6,7,8-tetrahydro-1,6-naphthyridine-3-carboxamide] | 94.7%
